Experimental data as given in patent US10508113B2, “Inhibitors of tyrosine kinase 2 mediated signaling” (AbbVie Inc., priority 2018, dated 2019).

How the values were obtained:
Jak1 = biological target: T1, Jak1 (Homo sapiens, UniProt P23458); assay: Jak1 (PSTAT3 TF1) alpha screen assay: inhibition of IL-6 induced phosphorylation of STAT3 in TF1 cells; assay type: cell-based; conditions: calculated from tabulated EC50 data (Jak1 / Tyk2)
T1 construct: endogenous in cells; host or cells: TF1 cells
Method: 2. JAK1 (PSTAT3 TF1) ALPHA SCREEN ASSAY
IL-6 is known to transduce its signal through IL-6 receptor via Jak1. Activity against Jak1 was therefore measured by determining inhibition of IL-6 induced phosphorylation of STAT3 in TF1 cells.
Cell Type: TF1 Cells; Culture Medium: RPMI 1640 Medium, 2mM L-glutamine, 10% heat- inactivated fetal bovine serum (FBS), 10 mM hydroxyethyl piperazineethanesulfonic acid (HEPES), and 2 ng/mL recombinant human interleukin-6(IL-6); Assay Medium: Dulbecco's Modified Eagle Medium (DMEM) medium with 2 mM L-glutamine, 10 mM HEPES, 100 U/mL penicillin/streptomycin, 1.5 g/L sodium bicarbonate, 4.5 g/L glucose, 1 mM sodium pyruvate, 10% heat-inactivated FBS; Compound Preparation: Compounds are dissolved in 100% dimethyl sulfoxide (DMSO).
Day One—Starve Cells: 4 Flasks for one 384 plate (spin down @1000 rpm for 10 minutes and add RPMI 1640 Medium, 2 mM L-glutamine, 10% FBS, 10 mM HEPES with no IL-6 -incubate overnight).
(§1) Day Two—Compound Dilutions:
i. Manual 8-point 1:5 dilution curve: 5 mM top concentration dispensed in row A of a
Corning 96-well polypropylene plate, columns 2-12. DMSO dispensed in position A01 for low and high controls. Compounds were serially diluted 1:5 by adding 10 μL stock to […] DMSO down the plate.
ii. Media dilution of compounds: Serially diluted compounds were further diluted 1:12.5 in assay medium by adding 4 μL compound to 46 μL assay medium in a Corning 96-well polypropylene plate.
384 Alpha Screen Plate Set up: Transfer 2.5 μL/well of compound solution from assay media dilution plate. Replicates were vertical, one column of the 96-well dilution plate goes into one column on the 384-well plate twice. Plated 1×10^5 starved cells/well in 5 μL. Washed cells in 10 mL DMEM medium after spinning down. Brought cell pellet up in assay media. Counted live cells. Multiplied by dilution factor and 10,000 (constant) to get the concentration of viable cells. Multiplied by volume of assay media used to bring up cells to get the total number of live cells. Divided by 20,000,000 cells/mL to get the volume needed. Cells were plated at 5 μL/well in gray Alpha Screen 384-well plate. Spinned the plate to bring the contents to the bottom of the wells at 300 rpm for 60 seconds. Top final compound concentration: 25 μM. Sealed with adhesive and tapped gently. Incubated plate at 37° C. for 30 minutes. c. IL-6 Stimulation (pSTAT3)
Once cells were in incubator, immediately prepared working stock of IL-6 (100 ng/mL final concentration). IL-6 stock=10 μg/mL of IL-6 in phosphate buffered saline with 0.1% bovine serum albumin. Diluted 1:25 by adding 60 μL stock IL-6 to 1440 μL assay media. Added 2.5 μL IL-6 to each well. Spinned plate at 300 rpm briefly; tapped the plate gently before covering with an adhesive seal. Incubated plate at 37° C. for 30 minutes.
Added 2.5 μL of 5X Lysis buffer to each well. Incubated at room temperature on orbital shaker for 10 minutes.
e. Protein (A) Acceptor Beads Preparation:
(§2) Phosphorylated Signal Transducer and Activator of Transcription 3 (pSTAT3) was quantified using the PerkinElmer SureFire pSTAT3 (Tyrosine 705) Assay. Calculated total volume needed (wells×154 μL×25%). Divided total volume by 5 to get volume of activation buffer. Subtracted volume of activation buffer from total volume and divide by 40 to get volume of acceptor beads (add last). Total volume−acceptor bead volume−activation buffer=volume of reaction buffer. Added 15 μL to each well and covered with foil. Shaked on orbital shaker for 2 hours at 500 rpm.
(§3) f. Streptavidin Donor Beads Preparation:
Calculated total volume needed (wells×[…]×25%). Divided total volume by 20 to get volume of donor beads (add last). Subtracted volume of donor beads from total volume to get volume of dilution buffer. Added 6 μL to each well and covered with foil. Shaked on orbital shaker overnight at 500 rpm.
Read plate on a Perkin Elmer Envision. […]

Jak2 = biological target: T2, Jak2 (Homo sapiens, UniProt O60674); assay: Jak2 (PSTATS UT7) alpha screen assay: inhibition of EPO induced phosphorylation of STAT5 in UT7 cells; assay type: cell-based; conditions: calculated from tabulated EC50 data (Jak2 / Tyk2)
T2 construct: Cell Type: UT7 cells engineered to express the erythropoietin (EPO) receptor; endogenous in cells; host or cells: UT7 cells engineered to express the EPO receptor
Method: 3. JAK2 (PSTATS UT7) ALPHA SCREEN ASSAY
Erythropoietin (EPO) is known to transduce its signal through EPO receptor via Jak2. Activity against Jak2 was therefore measured by determining inhibition of EPO induced phosphorylation of STATS in UT7 cells. […] Materials
Cell Type: UT7 cells engineered to express the erythropoietin (EPO) receptor; Culture Medium: Dulbecco's Modified Eagle Medium (DMEM) with 2 mM L-glutamine, 10 mM hydroxyethyl piperazineethanesulfonic acid (HEPES), 10% heat-inactivated fetal bovine serum (FBS) and Stock EPO (5000U in 250 uL, need 5U/mL, so add 250 μL to 1L of media); Assay Medium: 5% FBS ultra-low IgG and 1% Pen/Strep. Compounds were made-up in 100% dimethyl sulfoxide (DMSO).
Day One - Starve Cells: 4 Flasks for one 384 plate (spin down @1000 rpm for 10 minutes and add DMEM with no EPO).
as §1
i. Manual 8-point 1:3 dilution curve: 5 mM top concentration dispensed in row A of a
Corning 96-well polypropylene plate, columns 2-12. DMSO dispensed in position A01 for low and high controls. Compounds were serially diluted 1:3 by adding 10 μL stock to 20 μL DMSO down the plate.
ii. Media dilution of compounds: Serially diluted compounds were diluted 1:50 in assay medium by adding 4 μL compound to 196 μL assay medium in a Corning 96-well polypropylene plate.
384 Alpha Screen Plate Set up: Transferred 2.5 μL/well of compound solution from last dilution plate. Replicates were vertical, so that one column of the 96-well dilution plate goes into one column on the 384-well plate twice. Plated 1×10^5 starved cells/well in 5μL. Washed cells in 10 mL Hank's balanced salt solution (HBSS) after spinning down. Counted live cells. Multiplied by dilution factor and 10,000 (constant) to get the concentration of viable cells. Multiplied by volume of cells to get the total number of live cells. Divided by 20,000,000 cells/mL to get the volume needed. Subtracted the original volume to get the volume to be added to get the final concentration of cells. Mixed in reservoir if needed, ensuring that all cell clumps are broken up (if not broken up, they were removed from the suspension). Cells were plated at 5 μL/well in gray Alpha Screen 384-well plate. Spinned the plate to bring the contents to the bottom of the wells at 400 rpm for 2 minutes. Top final compound concentration: 25 μM. Sealed with adhesive and tapped gently. Incubated cells at 37° C. for 30 minutes.
c. EPO Stimulation (p STATS)
Once cells were in incubator, immediately prepared working stock of EPO (1 nM final assay concentration). EPO stock=2860 nM of sterile filtered liquid in sodium citrate buffer (1 liter of ddH2O containing 5.9 g of sodium citrate, 5.8 g of sodium chloride and 0.06 g of citric acid). Diluted 1:22.72 by adding 4.44 stock EPO to 95.6 pi assay media, then dilute again […] depending on how much volume is needed for the assay plates. Used assay medium to bring to volume. Added 2.5 μL EPO to each well. Spinned plate at 400 rpm briefly; tap the plate gently before covering with an adhesive seal. Cells were incubated at 37° C. for 20 minutes.
Added 2.5 μL of 5X Lysis buffer to each well. Spinned plate at 400 rpm briefly. Incubated at room temperature (on orbital shaker) for 10 minutes.
e. Protein (A) Acceptor Beads Preparation: (Light sensitive)
as §2, with “5 (pSTAT5)” for “3 (pSTAT3)”, “pSTATS” for “pSTAT3”, “694/699)” for “705)”, “(wells×15 μL×30%).” for “(wells×154 μL×25%).”, “volume - acceptor” for “volume−acceptor”, “volume - activation buffer to get volume” for “volume−activation buffer=volume”
as §3
Calculated total volume needed (wells×6μL×30%). […]

T2 sequence (O60674 whole entry): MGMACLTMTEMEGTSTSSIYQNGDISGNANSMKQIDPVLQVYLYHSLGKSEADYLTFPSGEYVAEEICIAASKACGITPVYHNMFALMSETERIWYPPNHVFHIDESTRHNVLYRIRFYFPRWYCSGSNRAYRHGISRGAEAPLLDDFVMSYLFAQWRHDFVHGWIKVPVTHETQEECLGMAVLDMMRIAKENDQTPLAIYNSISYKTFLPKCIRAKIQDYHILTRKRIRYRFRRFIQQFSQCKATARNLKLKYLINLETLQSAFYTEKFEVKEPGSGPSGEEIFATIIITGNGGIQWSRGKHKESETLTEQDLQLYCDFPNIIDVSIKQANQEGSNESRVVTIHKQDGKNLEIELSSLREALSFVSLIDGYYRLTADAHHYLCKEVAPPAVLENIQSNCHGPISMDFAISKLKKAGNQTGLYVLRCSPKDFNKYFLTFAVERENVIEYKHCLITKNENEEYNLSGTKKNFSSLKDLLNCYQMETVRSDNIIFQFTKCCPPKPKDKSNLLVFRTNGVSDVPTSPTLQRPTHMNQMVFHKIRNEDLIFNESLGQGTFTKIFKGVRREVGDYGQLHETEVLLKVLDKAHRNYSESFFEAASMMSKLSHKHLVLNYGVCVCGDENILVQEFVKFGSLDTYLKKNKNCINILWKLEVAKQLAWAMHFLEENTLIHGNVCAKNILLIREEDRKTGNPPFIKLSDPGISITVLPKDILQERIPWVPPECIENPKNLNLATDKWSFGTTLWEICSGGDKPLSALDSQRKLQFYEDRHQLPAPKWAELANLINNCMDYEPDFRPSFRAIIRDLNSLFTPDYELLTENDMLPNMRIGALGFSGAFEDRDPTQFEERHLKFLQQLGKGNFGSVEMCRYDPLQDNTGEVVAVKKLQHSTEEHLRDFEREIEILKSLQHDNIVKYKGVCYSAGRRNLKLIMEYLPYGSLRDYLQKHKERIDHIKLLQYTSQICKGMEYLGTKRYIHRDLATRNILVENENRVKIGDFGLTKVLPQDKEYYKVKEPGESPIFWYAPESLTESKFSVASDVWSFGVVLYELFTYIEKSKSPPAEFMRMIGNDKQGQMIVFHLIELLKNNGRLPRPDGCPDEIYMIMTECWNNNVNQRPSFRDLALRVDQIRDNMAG
T1 sequence (P23458 whole entry): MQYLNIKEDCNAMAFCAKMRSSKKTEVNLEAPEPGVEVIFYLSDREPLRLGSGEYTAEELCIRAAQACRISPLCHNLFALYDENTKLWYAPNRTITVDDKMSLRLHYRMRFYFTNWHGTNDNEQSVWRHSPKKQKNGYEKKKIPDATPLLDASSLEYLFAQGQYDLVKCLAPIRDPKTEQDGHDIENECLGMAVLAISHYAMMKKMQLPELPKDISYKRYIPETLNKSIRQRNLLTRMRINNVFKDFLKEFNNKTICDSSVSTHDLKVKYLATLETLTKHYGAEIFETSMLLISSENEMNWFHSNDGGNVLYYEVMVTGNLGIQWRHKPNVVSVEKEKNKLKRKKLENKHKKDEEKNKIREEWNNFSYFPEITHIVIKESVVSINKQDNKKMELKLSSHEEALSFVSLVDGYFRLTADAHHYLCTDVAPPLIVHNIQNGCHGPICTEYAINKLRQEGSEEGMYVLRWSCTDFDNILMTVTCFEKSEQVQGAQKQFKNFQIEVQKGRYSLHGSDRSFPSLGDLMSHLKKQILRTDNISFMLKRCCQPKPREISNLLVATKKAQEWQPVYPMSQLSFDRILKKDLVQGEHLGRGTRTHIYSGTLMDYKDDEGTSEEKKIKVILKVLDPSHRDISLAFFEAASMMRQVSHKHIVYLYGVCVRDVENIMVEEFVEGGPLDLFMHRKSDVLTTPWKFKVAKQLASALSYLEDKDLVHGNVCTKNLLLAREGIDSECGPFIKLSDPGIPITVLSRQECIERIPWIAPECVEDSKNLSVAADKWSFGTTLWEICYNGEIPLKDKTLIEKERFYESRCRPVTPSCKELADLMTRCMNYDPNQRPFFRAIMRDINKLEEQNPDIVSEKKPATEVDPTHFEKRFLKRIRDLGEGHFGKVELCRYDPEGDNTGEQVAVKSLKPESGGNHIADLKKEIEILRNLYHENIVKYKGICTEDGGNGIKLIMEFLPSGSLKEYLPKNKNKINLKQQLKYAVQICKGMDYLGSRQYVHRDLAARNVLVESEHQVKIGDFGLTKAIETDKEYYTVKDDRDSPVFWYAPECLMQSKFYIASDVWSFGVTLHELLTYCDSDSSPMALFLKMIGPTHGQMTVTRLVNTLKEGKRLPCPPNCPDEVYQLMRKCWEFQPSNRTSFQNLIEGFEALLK

Compound | Tyk2 selectivity over Jak1 (Jak1) | Tyk2 selectivity over Jak2 (Jak2)
COCc1cc(-c2cn(C)c3cnc(NC(N)=O)cc23)nc([C@]2(OC)CCOC2)c1 [Example 3, (R)-1-(3-(4-(Methoxymethyl)-6-(3-methoxytetrahydrofuran-3-yl)pyridin-2-yl)-1-methyl-1H-pyrrolo[2,3-c]pyridin-5-yl)urea] | 514-fold | >714-fold
COCc1cc(-c2cn(C3COC3)c3cnc(NC(C)=O)cc23)nc([C@]2(OC)CCOC2)c1 [Example 4, (R)-N-(3-(4-(methoxymethyl)-6-(3-methoxytetrahydrofuran-3-yl)pyridin-2-yl)-1-(oxetan-3-yl)-1H-pyrrolo[2,3-c]pyridin-5-yl)acetamide] | >730-fold | >182-fold
CO[C@@]1(c2cc(OCC3COC3)cc(-c3cn(C)c4cnc(NC(C)=O)cc34)n2)CCOC1 [Example 6, (R)-N-(3-(6-(3-Methoxytetrahydrofuran-3-yl)-4-(oxetan-3-ylmethoxy)pyridin-2-yl)-1-methyl-1H-pyrrolo[2,3-c]pyridin-5-yl)acetamide] | 420-fold | >500-fold
CO[C@@]1(c2cc(OCC[C@@H](C)O)cc(-c3cn(C)c4cnc(NC(C)=O)cc34)n2)CCOC1 [Example 7] | 39-fold | >28-fold
CO[C@@]1(c2cc(OCC[C@H](C)O)cc(-c3cn(C)c4cnc(NC(C)=O)cc34)n2)CCOC1 [Example 9, N-(3-(4-((S)-3-Hydroxybutoxy)-6-((R)-3-methoxytetrahydrofuran-3-yl)pyridin-2-yl)-1-methyl-1H-pyrrolo[2,3-c]pyridin-5-yl)acetamide] | 494-fold | >294-fold
CO[C@@]1(c2cc(OCCO)cc(-c3cn(C)c4cnc(NC(C)=O)cc34)n2)CCOC1 [Example 10, (R)-N-(3-(4-(2-Hydroxyethoxy)-6-(3-methoxytetrahydrofuran-3-yl)pyridin-2-yl)-1-methyl-1H-pyrrolo[2,3-c]pyridin-5)-ypacetamide] | 297-fold | >275-fold
CO[C@@]1(c2cc(O[C@H]3C[C@H](O)C3)cc(-c3cn(C)c4cnc(NC(C)=O)cc34)n2)CCOC1 [Example 11, N-(3-(4-((trans)-3-Hydroxycyclobutoxy)-6-((R)-3-methoxytetrahydrofuran-3-yl)pyridin-2-yl)-1-methyl-1H-pyrrolo[2,3-c]pyridin-5-yl)acetamide] | 442-fold | >481-fold
CO[C@@]1(c2cncc(-c3cn(C)c4cnc(NC(N)=O)cc34)n2)CCOC1 [Example 12, (R)-1-(3-(6-(3-Methoxytetrahydrofuran-3-yl)pyrazin-2-yl)-1-methyl-1H-pyrrolo[2,3-c]pyridin-5-yl)urea] | 66-fold | >102-fold

Second part, the molecule after the results:

Tyk2 selectivity over Jak1 (Jak1) | Tyk2 selectivity over Jak2 (Jak2) | Compound
243-fold | >1786-fold | CC[C@@]1(c2cccc(-c3cn(C)c4cnc(NC(N)=O)cc34)n2)CCOC1 [Example 3.2, (S)-1-(3-(6-(3-ethyltetrahydrofuran-3-yl)pyridin-2-yl)-1-methyl-1H-pyrrolo[2,3-c]pyridin-5-yl)urea]
310-fold | >144-fold | CO[C@@]1(c2cc(C(F)F)cc(-c3cn(C4COC4)c4cnc(NC(C)=O)cc34)n2)CCOC1 [Example 4.3, (R)-N-(3-(4-(difluoromethyl)-6-(3-methoxytetrahydrofuran-3-yl)pyridin-2-yl)-1-(oxetan-3-yl)-1H-pyrrolo[2,3-c]pyridin-5-yl)acetamide]
138-fold | >266-fold | CO[C@@]1(c2cc(C#N)cc(-c3cn(C)c4cnc(NC(N)=O)cc34)n2)CCOC1 [Example 12.3, (R)-1-(3-(4-cyano-6-(3-methoxytetrahydrofuran-3-yl)pyridin-2-yl)-1-methyl-1H-pyrrolo[2,3-c]pyridin-5-yl)urea]
385-fold | >641-fold | COc1cc(-c2cn(C)c3cnc(NC(N)=O)cc23)nc([C@]2(OC)CCOC2)c1 [Example 12.6, (R)-1-(3-(4-methoxy-6-(3-methoxytetrahydrofuran-3-yl)pyridin-2-yl)-1-methyl-1H-pyrrolo[2,3-c]pyridin-5-yl)urea]
